The values that follow come from PubChem BioAssay AID1259407 (Chemical Carcinogenesis Research Information System (CCRIS), 2018).

The structures appear in SMILES notation. The source made the active and inactive calls. The rule behind the calls is not given here.

For the data set, the system named is CCRIS mutagenicity, Ames/micronucleus/aberration tests. The experiment in a line: CCRIS mutagenicity studies.
[1] abbreviates: Test System: AMES SALMONELLA TYPHIMURIUM, Strain/Indicator: TA98, Metabolic Activation: NONE, Method: STANDARD PLATE.
Where [2] appears, read: Test System: AMES SALMONELLA TYPHIMURIUM, Strain/Indicator: TA100, Metabolic Activation: NONE, Method: STANDARD PLATE.
[3] abbreviates: Test System: AMES SALMONELLA TYPHIMURIUM, Strain/Indicator: TA98, Metabolic Activation: RAT, LIVER, S-9, AROCLOR 1254, Method: STANDARD PLATE.

Turning to `Oc1c(O)c(Cl)c(Cl)c(Cl)c1Cl`, the mutagenic call reads like this: (Test System: CHINESE HAMSTER V-79, Strain/Indicator: V-79/6-THIOGUANINE (HGPRT), Metabolic Activation: NONE, Method: SUSPENSION/PLATE) “inactive; negative”; (Test System: CHINESE HAMSTER V-79, Strain/Indicator: V-79/6-THIOGUANINE, Metabolic Activation: NONE, Method: STANDARD PLATE) “inactive; negative”; (Test System: CHINESE HAMSTER V-79, Strain/Indicator: V-79/6-THIOGUANINE, Metabolic Activation: PRIMARY RAT HEPATOCYTES, Method: STANDARD PLATE) “inactive; negative”; (Test System: CHINESE HAMSTER V-79, Strain/Indicator: V-79/OUABAIN, Metabolic Activation: NONE, Method: SUSPENSION/PLATE) “inactive; negative”.
For `COc1cccc2c1C(=O)c1c(O)c3c(c(O)c1C2=O)C[C@@](O)(C(C)=NNC(=O)c1ccccc1)C[C@@H]3O[C@H]1C[C@H](N)[C@H](O)[C@H](C)O1`, the mutagenic call is “inactive; negative” (Test System: AMES SALMONELLA TYPHIMURIUM, Strain/Indicator: TA97, Metabolic Activation: NONE, Method: STANDARD PLATE); “active; positive” under setting [1]; “inactive; negative” under setting [2]; “inactive; negative” (Test System: AMES SALMONELLA TYPHIMURIUM, Strain/Indicator: TA104, Metabolic Activation: NONE, Method: STANDARD PLATE); “active; positive” (Test System: AMES SALMONELLA TYPHIMURIUM, Strain/Indicator: TA2637, Metabolic Activation: NONE, Method: STANDARD PLATE).
On to `COc1cc(O[C@@H]2O[C@H](CO)[C@@H](O)[C@H](O)[C@H]2O)c2c(=O)c3c(O)ccc(O)c3oc2c1`, for which the mutagenic call was “active; positive” (Test System: AMES SALMONELLA TYPHIMURIUM, Strain/Indicator: TA97, Metabolic Activation: RAT, LIVER, S-9, PHENOBARBITAL AND 5,6-BENZOFLAVONE, BETA-GLUCOSIDASE, Method: PREINCUBATION); “inactive; negative” (Test System: AMES SALMONELLA TYPHIMURIUM, Strain/Indicator: TA98, Metabolic Activation: RAT, LIVER, S-9, PHENOBARBITAL AND 5,6-BENZOFLAVONE, BETA-GLUCOSIDASE, Method: PREINCUBATION); “active; positive” (Test System: AMES SALMONELLA TYPHIMURIUM, Strain/Indicator: TA100, Metabolic Activation: RAT, LIVER, S-9, PHENOBARBITAL AND 5,6-BENZOFLAVONE, BETA-GLUCOSIDASE, Method: PREINCUBATION); “active; positive” (Test System: AMES SALMONELLA TYPHIMURIUM, Strain/Indicator: TA2637, Metabolic Activation: RAT, LIVER, S-9, PHENOBARBITAL AND 5,6-BENZOFLAVONE, BETA-GLUCOSIDASE, Method: PREINCUBATION).
Regarding `N[C@@H](CCC(=O)N[C@@H](CS/C(Cl)=C(\Cl)C(Cl)=C(Cl)Cl)C(=O)NCC(=O)O)C(=O)O`, the mutagenic call is, setting by setting: (Test System: AMES SALMONELLA TYPHIMURIUM, Strain/Indicator: TA100, Metabolic Activation: NONE, Method: PREINCUBATION) “active; positive”; under setting [2], “inactive; negative”; (Test System: AMES SALMONELLA TYPHIMURIUM, Strain/Indicator: TA100, Metabolic Activation: RAT, KIDNEY, CYTOSOL, Method: PREINCUBATION) “active; positive”; (Test System: AMES SALMONELLA TYPHIMURIUM, Strain/Indicator: TA100, Metabolic Activation: RAT, KIDNEY, MICROSOMES, Method: PREINCUBATION) “active; positive”; (Test System: AMES SALMONELLA TYPHIMURIUM, Strain/Indicator: TA100, Metabolic Activation: RAT, KIDNEY, MITOCHONDRIA, Method: PREINCUBATION) “active; positive”; (Test System: AMES SALMONELLA TYPHIMURIUM, Strain/Indicator: TA100, Metabolic Activation: RAT, KIDNEY, S-9, AROCLOR 1254, Method: STANDARD PLATE) “active; positive”.
Take `O=[N+]([O-])c1c(O)ccc2c1[nH]c1ccccc12`: the mutagenic call is “inactive; negative” under setting [1] and “inactive; negative” under setting [3].
With `CS(=O)(=O)c1ccc(Cl)cc1`, the mutagenic call is “inactive; negative” under setting [1]; “inactive; negative” under setting [3]; “inactive; negative” under setting [2]; “inactive; negative” (Test System: AMES SALMONELLA TYPHIMURIUM, Strain/Indicator: TA100, Metabolic Activation: RAT, LIVER, S-9, AROCLOR 1254, Method: STANDARD PLATE); “inactive; negative” (Test System: AMES SALMONELLA TYPHIMURIUM, Strain/Indicator: TA1535, Metabolic Activation: NONE, Method: STANDARD PLATE); “inactive; negative” (Test System: AMES SALMONELLA TYPHIMURIUM, Strain/Indicator: TA1535, Metabolic Activation: RAT, LIVER, S-9, AROCLOR 1254, Method: STANDARD PLATE). The mutagenic call is “inactive; negative” (Test System: AMES SALMONELLA TYPHIMURIUM, Strain/Indicator: TA1537, Metabolic Activation: NONE, Method: STANDARD PLATE); “inactive; negative” (Test System: AMES SALMONELLA TYPHIMURIUM, Strain/Indicator: TA1537, Metabolic Activation: RAT, LIVER, S-9, AROCLOR 1254, Method: STANDARD PLATE); “inactive; negative” (Test System: AMES SALMONELLA TYPHIMURIUM, Strain/Indicator: TA1538, Metabolic Activation: NONE, Method: STANDARD PLATE); “inactive; negative” (Test System: AMES SALMONELLA TYPHIMURIUM, Strain/Indicator: TA1538, Metabolic Activation: RAT, LIVER, S-9, AROCLOR 1254, Method: STANDARD PLATE).
